Active and inactive are the calls of the source. The rule behind the calls is not given here.

The test system of this experiment is A10. As to the kind of experiment: Disruption of actin cytoskeleton in rat A10 cells upto 10 ug/ml by rhodamine-phalloidin assay. It counts as functional.
As to `C/C(=C/C(=O)O)CC/C=C\[C@@H](C)CC[C@@H]1CC=CC(=O)O1`, the result was inactive.
Consider `CO[C@]1([C@@H]2CSC(=O)N2)C[C@H]2C[C@@H](CC[C@H](C)/C=C\CC/C(C)=C\C(=O)O2)O1`, for which the result was inactive.
Compound `C/C1=C/C(=O)O[C@@H]2C[C@@H](CC[C@H](C)/C=C\CC1)O[C@@](O)([C@H]1CSC(=O)N1)C2` [16-EPI-LATRUNCULIN B] returned an Activity of 5 µg/mL.
Next, `C/C1=C/C(=O)O[C@@H]2C[C@@H](CC[C@H](C)/C=C\CC1)O[C@@](O)([C@@H]1CSC(=O)N1)C2` [LATRUNCULIN B]: 0.5 µg/mL; `C/C1=C/C(=O)O[C@@H]2C[C@@H](CC[C@H](C)/C=C\C=C\CC1)O[C@@](O)([C@@H]1CSC(=O)N1)C2` [LATRUNCULIN A]: 0.5 µg/mL.

For the origin of these results see ChEMBL document CHEMBL1151240, “A new dimension to the biosynthetic products isolated from the sponge Negombata magnifica” (2004).
